Source: paper PMC11346425, “Sulfoquinovosyl diacylglycerol is required for dimerisation of the Rhodobacter sphaeroides reaction centre-light harvesting 1 core complex” (Biochemical Journal, 2024)

How the values were obtained:
Test in all cases: light-driven cytochrome c2 oxidation at […] nm, steady state
Format in all cases: biochemical
[1] = molecular target: T1, monomeric RC-LH1 core complex (RC3-LH1_14-XY) (Cereibacter sphaeroides, UniProt Q3J1A5+Q3J1A6); details: 50 uM ubiquinone-2, 5 uM reduced cytochrome c2, 810 nm LED, pH 8, 0.03% beta-DDM; electron acceptor; 0.05 uM RC-LH1
T1 construct: gene pufL; native, beta-DDM-solubilised membranes, sucrose gradient monomer band; 1 RC, C-shaped LH1 of 14 subunits; with Reaction center protein M chain; Reaction center protein H chain; Light-harvesting protein B-875 alpha chain; Light-harvesting protein B-875 beta chain; Intrinsic membrane protein PufX; Protein-Y

[2] = molecular target: T1, monomeric RC-LH1 core complex (RC3-LH1_14-XY); details: 50 uM ubiquinone-2, 5 uM reduced cytochrome c2, 810 nm LED, pH 8, 0.03% beta-DDM; electron acceptor
[3] = molecular target: T2, dimeric RC-LH1 core complex (Cereibacter sphaeroides, UniProt Q3J1A5+Q3J1A6); details: 50 uM ubiquinone-2, 5 uM reduced cytochrome c2, 810 nm LED, pH 8, 0.03% beta-DDM; electron acceptor; 0.01 uM RC-LH1
T2 construct: gene pufL; native, beta-DDM-solubilised membranes, sucrose gradient dimer band; 2 RC, S-shaped LH1 of 28 subunits; with Reaction center protein M chain; Reaction center protein H chain; Light-harvesting protein B-875 alpha chain; Light-harvesting protein B-875 beta chain; Intrinsic membrane protein PufX; Protein-Y; Protein-Z

COC1=C(OC)C(=O)C(C/C=C(\C)CCC=C(C)C)=C(C)C1=O [ubiquinone-2]
light-driven cytochrome c2 oxidation at 550 nm, steady state [1]: Turnover assays for monomeric complexes from WT, PufX R49L R53L, ΔolsBA and ΔsqdB mutants
light-driven cytochrome c2 oxidation at 550 nm, steady state [2]: light-driven oxidation rate of cytochrome c2 by monomeric and dimeric complexes in the presence of ubiquinone-2
light-driven cytochrome c2 oxidation at 550 nm, steady state [3]: light-driven oxidation rate of cytochrome c2 by monomeric and dimeric complexes in the presence of ubiquinone-2
